Data set [1] has as its system MM1.S human multiple myeloma cells. Put plainly: Cell cycle profile (PI staining, sub-G1 cells). It counts as cell-based. As to the method: Apoptosis was determined by staining cells with annexin V-FITC and propidium iodide (PI). Cells were treated with DEX in the presence or absence of NM-3. NM-3 was added 2 hours before the addition of DEX. After 24 hours of DEX exposure, cells were washed twice with cold PBS, resuspended in binding buffer (10 mM HEPES/NaOH (pH 7.4), 140 mM NaCl, 2.5 mM CaCl2), and then stained with annexin V-FITC (Clontech Laboratories) and PI (Boehringer-Manheim). Apoptosis was analyzed by using a flow cytometer (EPICS XL-MCL, Coulter Corp). The cultured cells were also subjected to cell cycle analysis. Briefly, cells were washed twice with PBS and fixed with 70% ethanol. Cells were then washed with 0.5 ml PBS and 1.0 ml phosphate-citric acid buffer (0.2 M Na2HPO4 and 0.1 M citric acid (pH 7.8)), treated with 200 μg/ml RNase for 15 min at 37° C., and stained with 50 μg/ml PI for 30 min at room temperature in the dark. Cells were filtered through 35-μm diameter mesh to remove clumps. Nuclear staining was analyzed by a flow cytometer. Cells with fractional DNA content located on DNA frequency histograms to the left of the G1 peak (sub-G1 cells) were identified as apoptotic cells.

Data set [2] relates to Human umbilical vein endothelial cells (HUVEC). Description: HUVEC colony survival with increasing doses of X-rays. The conditions noted are these: highest X-ray dose. It counts as cell-based. As to the method: In another study of HUVEC radiation sensitivity, cells were treated with NM-3 (100 ng/ml) 1 hr prior to exposure of the cells to increasing doses of gamma irradiation (X-rays). The numbers of HUVEC colonies that formed following the different treatments were recorded and normalized to the number of colonies formed under control conditions (see FIG. 2). Increasing doses of X-rays in the absence of NM-3 decreased HUvEC colony survival to a minimal value of 10% survival at the highest dose tested. In the presence of NM-3, HUVEC colony survival decreased to 0.01% of the initial living cells at the highest X-ray dose.

Data set [3] concerns NIH3T3 cells (fibroblasts). Description: Cell growth (WST-1) in the presence of NM-3. The data set is classed as cell-based. The conditions noted are these: Mus musculus, NIH3T3, 72 h; 3 days culture with NM-3. As to the method:
(§1) To determine the extent to which NM-3 [2-(8-hydroxy-6-methoxy-1-oxo-1H-2-benzopyran-3-yl) propionic acid] inhibited the proliferation of, or was cytotoxic toward, human tumor cells and normal mouse cells, a variety of cell lines were grown in the presence of NM-3. The human cell lines used were K562 (leukemia cells), HT29 (colon tumor cells) HT1080 (reticulum blast sarcoma cells), and MCF7 (breast tumor cells). The mouse cells used were NIH3T3 cells (fibroblasts). All cell lines were cultured in 96-well plates to a density of 2-5×10^3 cells/well. Culture medium (RPMI 1640 plus 10% FBS) alone or containing NM-3 at one of several concentrations tested was then added to the cultures which were allowed to grow for an additional 3 days. To assess cell growth, 10 μl of WST-1 reagent (a chromogenic substrate for living cells) was added to each well and incubation continued for 3 hrs at 37° C. Absorbance at 450 nm was then determined using a plate reader.
On the technique in general: Tetrazolium dyes change colour on reduction, which living cells bring about.

Another data set concerns HT29 (colon tumor cells). Description: Cell growth (WST-1) in the presence of NM-3. The data set is classed as cell-based. The conditions noted are these: Homo sapiens, HT-29, 72 h; 3 days culture with NM-3. As to the method:
as §1

Data set [4] relates to MCF7 (breast tumor cells). Put plainly: Cell growth (WST-1) in the presence of NM-3. The data set is classed as cell-based. The conditions noted are these: Homo sapiens, MCF7, 72 h; 3 days culture with NM-3. How it is done: as §1
A further data set relates to K562 (leukemia cells). Description: Cell growth (WST-1) in the presence of NM-3. It counts as cell-based. The conditions noted are these: Homo sapiens, K562, 72 h; 3 days culture with NM-3. How it is done: as §1
Data set [5] relates to HT1080 (reticulum blast sarcoma cells). Description: Cell growth (WST-1) in the presence of NM-3. It counts as cell-based. The conditions noted are these: Homo sapiens, HT-1080, 72 h; 3 days culture with NM-3. How it is done:
as §1

The conditions of data set [6]: in vivo; cited from earlier work.
The next data set deals with LLC tumor. Put plainly: LLC tumors, second experiment, complete cures. It counts as in vivo. The conditions noted are these: NM-3 25 μg/kg daily over the first four days + 20 Gy X-irradiation on days 2 and 4. How it is done:
In a second similar experiment, X-ray treatment and X-ray treatment combined with NM-3 treatment were again compared for their relative abilities to inhibit LLC tumor growth. However, the treatment period was extended to determine whether either treatment regimen was able to initiate complete tumor cures. Animals were injected with […] initially and starting tumor volumes were approximately 500 mm^3. Tumors were irradiated on days 2 and 4 with 20 Gy X-irradiation. NM-3 was administered at 25 μg/kg daily over the first four days. The tumors of both groups increased slightly in size following initiation of treatment and then began to decrease after several days. Tumors in the X-ray only group began to increase steadily in size after the 10th day of continuous treatment. In contrast, tumors in the NM-3+X-ray group continued to decrease in size following the initial growth phase. Ultimately, 9 of 10 animals receiving NM-3+X-ray treatment experienced a complete cure while only 3 of 10 animals were cured by the X-ray treatment alone.

Data set [7] relates to MDAMB-435 human breast tumor xenografts. Put plainly: MDAMB-435 orthotopic model, NM-3 with paclitaxel, first study. It counts as in vivo, female NCRNU nude mice. The conditions noted are these: NM-3 100 mg/kg I.P. daily alone. The text has this: In order to determine the effect of the combination of NM-3 with the cytotoxic drug, paclitaxel on human breast tumor xenografts, female NCRNU nude mice were implanted with MDAMB-435 cells into the subaxillary mammary fat pad. […]

Data set [8] has as its system Human umbilical vein endothelial cells (HUVEC). Put plainly: HUVEC colony formation with a constant amount of gamma radiation. It counts as cell-based. How it is done: Human umbilical vein endothelial cells (HUVEC) were exposed to a constant amount of gamma radiation in the presence or absence of various concentrations of NM-3 in the culture medium. The numbers of HUVEC colonies that formed following the different treatments were recorded and normalized to the number of colonies formed under control (no NM-3) conditions and the results are shown in FIG. 1. […] For comparison, HUVEC cells were treated with either angiostatin or endostatin, two additional anti-angiogenic proteins.

The subject of the next data set is MKN28. Put plainly: Cell growth (WST-1) in the presence of NM-3. It counts as cell-based. The conditions noted are these: Homo sapiens, MKN-28, 72 h; 3 days culture; value somewhat low due to the influence of DMSO.

The values that follow come from patent publication US6900239B2, “Tumor chemopotentiation using isocoumarin derivatives” (ILWZ ILEX Products, Inc., priority 2000, dated 2005).

As to `COc1cc(O)c2c(=O)oc(C(C)C(=O)O)cc2c1` (stereo not shown) [NM-3, 2-(8-hydroxy-6-methoxy-1-oxo-1H-2-benzopyran-3-yl) propionic acid], the Cell cycle profiles result in data set [1] (NM-3 alone, 50-200 μg/ml) is given as “only nominal effects”. The “DEX-induced sub-G1 cells (apoptotic cells)” value in data set [1] (NM-3 with DEX 1 μM, 24 hours, concentration-dependent) is “increased DEX-induced sub-G1 cells”. The same compound came in with an HUVEC colony survival in [2] (NM-3 100 ng/ml 1 hr prior to irradiation) of 0.01%. In [2] (NM-3 100 ng/ml), the “Increase of sensitivity to X-ray induced lethality” value is “approximately 1000 fold”. The IC50 (usually the point on the concentration scale where inhibition reaches its midpoint) in data set [3] is more than 100 µg/mL; in the data set with HT29 (colon tumor cells), more than 300 µg/mL; in data set [4], 223 µg/mL; with K562 (leukemia cells), 250 µg/mL; in data set [5], 300 µg/mL; in the data set on MKN28 it was 175 µg/mL. Moreover, in data set [6], the Stability result was “highly stable”. Besides, the “Animals with complete cure” value in the data set on LLC tumor is on record as 9 of 10. Also, the “% Tumor Growth Inhibition” value in data set [7] is 15.29%. Also, the “Final Tumor Wt. (mg) +/− SEM” value in data set [7] turned out to be 180.0 ± 18.13 mg. Also, the “Mice with Complete Shrinkage” value in data set [7] (n 9) is on record as 0. In addition, in data set [8], the “ED50, decrease of HUVEC colony formation” value is listed as “approximately 1 μg/ml”.
